The AUC(0-inf) is total exposure, with the tail of the curve extrapolated. Lower therefore signals less exposure. The Cmax is the highest concentration seen after dosing. A word on the AUC(0-t): it is exposure summed from dosing to a finite time, without extrapolation to infinity. Higher therefore signals more exposure. The term Tmax denotes the time at which the peak concentration occurs.

1 compound from patent US20250213548A1, “PHARMACEUTICAL COMPOSITIONS FOR IMPROVING ORAL BIOAVAILABILITY” (Bristol-Myers Squibb Company, priority 2022, published 2025) can be followed below.

Data set [1] in a line: Oral absorption of prepared formulations of Compound (II) in dogs (Example 10, 70 mg). Particulars: beagle, dog, blood, iv, 10 mg.
Protocol: (§1) Fasted pentagastrin-pretreated male beagle dogs (n=4) were dosed by oral route followed by gavage flush with water to facilitate gastro-intestinal dissolution. Blood samples were taken at predetermined times over 72 hours post-dose to measure comparative pharmacokinetics between the formulations. Due to the long half-life these were conducted in a parallel group design in different sets of dogs.
Data set [2] can be described thus: Oral absorption of formulated tablets of Compound (II) in cyno monkeys (PK). The conditions noted are these: cynomolgus monkey, iv, 0.1 mg/kg.
Protocol: (§2) Four coated tablets were added in each #00 gray opaque hard gelatin capsule for the cyno PK study. Each cyno monkey was dosed with 2 capsules (8 coated tablets).
(§3) Fasted male cyno monkeys (n=3) were dosed by oral route followed by gavage flush with water to facilitate gastro-intestinal dissolution. Blood samples were taken at predetermined times over 72 hours post-dose to measure comparative pharmacokinetics between the formulations. Due to the long half-life these were conducted in a parallel group design in different sets of cyno monkeys.
The nature of data set [3]: in vivo. The conditions noted are these: beagle, dog, iv, 10 mg.
Protocol: as §1
For data set [4] the following is noted: cynomolgus monkey, in vivo, iv, 0.1 mg/kg.
Protocol: as §2, §3
The nature of data set [5]: in vivo. The conditions noted are these: cynomolgus monkey, iv.
Protocol: as §2, §3
Data set [6] in a line: in vivo. Particulars: beagle, dog, iv, 10 mg. The source holds these as a separate data set.
Protocol: as §1
Data set [7] can be described thus: in vivo. Particulars: dog, iv, 10 mg.
Protocol: Dogs were administered formulations as follows: • 2×50 mg tablets with 10% API (Example 10, 88.6 mg dose after API potency correction) • 10×10-mg tablets with 10% API (Example 11, 88.6 mg dose after API potency correction) • 5×10 mg tablets with 10% API (Example 11, 44.3 mg dose after API potency correction) and 5 placebo tablets with enhancer only. • 10×5 mg tablets with 5% API (44.3 mg dose after API potency correction) • 40×2.5 mg tablets with 10% API (Example X, 100 mg dose after potency correction)
The conditions of data set [8]: rat, in vivo.
Protocol: The study was run as a two-treatment, two-segment, parallel study in anesthetized, fasted, male Sprague Dawley rats (rat weight: ˜300 g) with 4 rats per group.
For duodenal absorptional testing, the rats were ligated at pylorus (proximal) and the subject formulation was injected directly into duodenum 5 cm past pylorus ligation (about 15 cm from the pylorus) and the distal part of the segment was ligated to contain drug in intestinal segment.
Samples of the dosed solution from gastric and duodenal segments were extracted at 60 min to measure remaining drug concentrations.

In the case of `CCCC[C@H]1C(=O)N(C)[C@@H](CCCC)C(=O)N[C@@H](CC(C)C)C(=O)N[C@H](C(=O)NCC(=O)N[C@@H](Cc2cn(CCOCCOCCCOCCCOCCOCCOCCOCCOCCOCCOCCOCCNC(=O)CC[C@H](NC(=O)CCCCCCCCCCCCCCCCC(=O)O)C(=O)O)nn2)C(=O)O)CSCC(=O)N[C@@H](Cc2ccc(O)cc2)C(=O)N(C)[C@@H](C)C(=O)N[C@@H](CC(N)=O)C(=O)N2CCC[C@H]2C(=O)N[C@@H](CN)C(=O)N[C@@H](CC(C)C)C(=O)N2C[C@H](O)C[C@H]2C(=O)N[C@@H](Cc2c[nH]c3ccccc23)C(=O)N[C@@H](CCN)C(=O)N[C@@H](Cc2cn(CC(=O)O)c3ccccc23)C(=O)N1C` [Compound (II)], the values for the area under the curve AUC(0-inf) (in data set [1]; in data set [2] (blood); in the data set “in vivo [3]”) were 402 µM·h, 52 µM·h and 402 µM·h, respectively. The peak concentration (Cmax) in data set [1] amounted to 8.55 µM; in data set [2] (in vivo) it was 0.798 µM; in “in vivo [3]” it was 8.55 µM; in the data set “in vivo [7]”, 25500 ng/mL. Moreover, the area under the curve AUC(0-t) in data set [2] (in vivo) is 47.6 µM·h; in “in vivo [3]” (AUC0-24 h (nM · h) Mean), 126 µM·h; in “in vivo [3]” (AUC0-t (nM · h)* Mean), 322 µM·h; in the data set “in vivo [7]” (AUC0-24 h (ng · h/mL) Mean) it was 376 µg·h/mL; in “in vivo [7]” (AUC0-72 h (ng · h/mL) Mean), 833 µg·h/mL. Further, the Tmax is 12 min in the data set “in vivo [3]”, 18 min in the data set “in vivo [5]” (0.1 mg/kg), 12 min in the data set “in vivo [6]” and 12 min in “in vivo [7]”. Also, the “BA (%) using AUCInf Mean” value in data set [4] is reported as 100.00%. The compound further displayed a level at time molar at 24 h in “in vivo [5]” (0.1 mpk) of 0.544 µM. Further, the “systemic absorption, intestinal compartment compared to the gastric compartment” value in data set [8] was “good systemic absorption”.
